In one data set the target is dopamine D2 receptors (Rattus norvegicus, UniProt P61169). Kind of data set: Inhibition of 3H-spiroperidol binding to dopamine D2 receptors in rat brain in vitro. To be noted: 3H-spiroperidol 0.5 nM, membranes from rat corpus striatum; read-out: 3H Spiroperidole (D2) binding IC50. On the procedure:
Inhibition of 3H-spiroperidol Binding to Dopamine D2 Receptors in Rat Brain in vitro
By this method the inhibition by drugs of the binding of the D2 antagonist ^3H-spiroperidol (0.5 nM) to D2 receptors in membranes from rat corpus striatum is determined in vitro. Accordingly, this is a test for affinity for the dopamine D2 receptor.

The next data set in a line: Cataleptogenic effect. On the set-up: species or system rats. To be noted: rat, in vivo; 1-6 h, sc; read-out: Catalepsy ED50. From the text:
Evaluation of cataleptogenic effects of the compounds of the invention was made according to the method of Sanchez, C. et al.; Drug Dev. Res. 1991, 22, 239-250.

For another data set, the target named is T1, 5-HT1A receptors (Rattus norvegicus, UniProt P19327).
T1 sequence (P19327 1-422): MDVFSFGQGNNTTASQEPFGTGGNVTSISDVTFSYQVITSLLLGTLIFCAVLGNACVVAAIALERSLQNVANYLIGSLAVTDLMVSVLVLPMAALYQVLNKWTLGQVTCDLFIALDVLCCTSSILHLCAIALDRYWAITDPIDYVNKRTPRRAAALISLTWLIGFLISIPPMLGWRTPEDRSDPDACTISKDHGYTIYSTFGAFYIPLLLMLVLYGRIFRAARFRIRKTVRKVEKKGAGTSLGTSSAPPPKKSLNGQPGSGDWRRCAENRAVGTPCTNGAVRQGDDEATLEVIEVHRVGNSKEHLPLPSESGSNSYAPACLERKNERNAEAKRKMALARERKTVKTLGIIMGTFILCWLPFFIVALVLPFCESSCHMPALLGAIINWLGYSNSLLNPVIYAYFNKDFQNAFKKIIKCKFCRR
In words: Inhibition of 3H-8-OH-DPAT binding to serotonin 5-HT1A receptors in rat brain in vitro. Further details: 5-HT1A receptors in membranes from rat brain minus cerebellum; from tissue; host or cells: rat brain minus cerebellum (membranes). The settings on record: 3H-8-OH-DPAT 1 nM, membranes from rat brain minus cerebellum. How it is done: Inhibition of ^3H8-OH-DPAT Binding to Serotonin 5-HT1A Receptors in Rat Brain in vitro
By this method the inhibition by drugs of the binding of the 5-HT1A agonist 3H-8-OH-DPAT (1 nM) to 5-HT1A receptors in membranes from rat brain minus cerebellum is determined in vitro. Accordingly, this is a test for affinity for the 5-HT1A receptor. The test was performed as described by Hyttel et al., Drug Dev. Res. 1988, 15, 389-404.

Structures are written as SMILES. Structures can show the parent of a compound that is named as a salt.

Sequence of dopamine D2 receptors (P61169 1-415 isoform P61169-2): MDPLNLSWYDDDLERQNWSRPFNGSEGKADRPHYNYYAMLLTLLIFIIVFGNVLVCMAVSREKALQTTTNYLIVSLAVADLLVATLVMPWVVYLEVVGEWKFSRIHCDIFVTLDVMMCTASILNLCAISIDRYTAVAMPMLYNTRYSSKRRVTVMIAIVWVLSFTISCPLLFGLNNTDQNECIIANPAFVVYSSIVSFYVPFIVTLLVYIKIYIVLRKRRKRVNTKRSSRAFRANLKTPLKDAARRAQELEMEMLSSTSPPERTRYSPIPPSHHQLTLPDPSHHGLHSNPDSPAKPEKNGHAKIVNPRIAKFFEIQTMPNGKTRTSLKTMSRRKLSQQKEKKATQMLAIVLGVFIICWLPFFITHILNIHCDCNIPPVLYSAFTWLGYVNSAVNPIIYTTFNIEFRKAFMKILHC

As to `CC(C)(C)COc1ccccc1C1CCN(CCCCN2CCN(C3CCCCC3)C2=O)CC1.O=C(O)C(=O)O`, the melting point was 162 to 168 °C.
`CC(C)Oc1ccccc1C1CCN(CCCCn2ccn(C34CC5CC(CC(C5)C3)C4)c2=O)CC1.O=C(O)C(=O)O` displayed a melting point of 116 to 122 °C.
For the compound `CC(C)Oc1ccccc1C1=CCN(CCCCn2ccn(C34CC5CC(CC(C5)C3)C4)c2=O)CC1.O=C(O)C(=O)O`, the melting point was 104 to 109 °C.
On the same count and under the same terms, with `O=C1N(CCCCN2CCN(c3ccccc3OS(=O)(=O)C(F)(F)F)CC2)CCN1C1CCCCC1` (as salt: hydrochloride) [Compound 7b, 3-Cyclohexyl-1-[4-[4-[2-(2-trifluoromethylsulfonyloxy)phenyl]-1-piperazinyl]butan-1-yl]-2-imidazolidinone, hydrochloride] the figure was 153 to 154 °C.
On to `CC(C)Oc1ccccc1N1CCN(CCCCN2CCN(C3CCCCC3)C2=O)CC1.O=C(O)C(=O)O` [Compound 4a, 3-Cyclohexyl-1-[4-[4-[2-(2-propyloxy)phenyl]-1-piperazinyl]butan-1-yl]-2-imidazolidinone, Oxalate], for which the results for the concentration for half-maximal inhibition (IC50) on dopamine D2 receptors and on 5-HT1A receptors were 0.0064 µM and 0.0018 µM, respectively. For the same compound, in “Cataleptogenic effect”, the 50% effective dose (ED50) is over 38 µmol/kg.
Regarding `CC(C)Oc1ccccc1N1CCN(CCCCN2CCN(c3ccc(F)cc3)C2=O)CC1` [Compound 4b, 3-(4-Fluorophenyl)-1-[4-[4-[2-(2-propyloxy)phenyl]-1-piperazinyl]butan-1-yl]-2-imidazolidinone], the melting point lay within 135 to 137 °C. For the same compound, the half-maximal inhibitory concentration (IC50) on dopamine D2 receptors came out at 0.0039 µM. Besides, the ED50 in “Cataleptogenic effect” is over 44 µmol/kg. At 5-HT1A receptors, this compound had an IC50 of 0.0022 µM.
`Cl.Cl.O=C1N(CCCCN2CCN(c3ccccc3OC3CCCC3)CC2)CCN1C1CCCCC1` [Compound 4c, 3-Cyclohexyl-1-[4-[4-(2-cyclopentyloxyphenyl)-1-piperazinyl]butan-1-yl]-2-imidazolidinone, dihydrochloride] displayed a melting point of 182 to 193 °C. Besides, at dopamine D2 receptors, the half-inhibitory concentration (IC50) turned out to be 0.013 µM. The median effective dose (ED50) in “Cataleptogenic effect” was over 37 µmol/kg. This compound also yielded an IC50 on 5-HT1A receptors of 0.0054 µM.
The compound `O=C1N(CCCCN2CCN(c3ccccc3OC3CCCC3)CC2)CCN1c1ccc(F)cc1` [Compound 4d, 1-[4-[4-(2-Cyclopentyloxyphenyl)-1-piperazinyl]butan-1-yl]-3-(4-fluorophenyl)-2-imidazolidinone] showed a melting point of 111 to 116 °C. For the same compound, the IC50 at dopamine D2 receptors is 0.015 µM. Also, in “Cataleptogenic effect”, the median effective dose (ED50) was over 42 µmol/kg. On 5-HT1A receptors, this compound registered a 50% inhibitory concentration (IC50) of 0.004 µM.
`CC(C)Oc1ccccc1N1CCN(CCCN2CCN(c3ccccc3)C2=O)CC1` [Compound 4e, 1-[3-[4-(2-(2-propyloxy)phenyl)-1-piperazinyl]-1-propyl]-3-phenyl-2-imidazolidinone]: the melting point fell in the range of 167 to 168 °C. Moreover, the IC50 at dopamine D2 receptors stood at 0.024 µM. The ED50 in the data set “Cataleptogenic effect” was over 34 µmol/kg. In addition, the IC50 at 5-HT1A receptors amounted to 0.04 µM.
As for `CC(C)Oc1ccccc1C1CCN(CCCCN2CCN(c3ccc(F)cc3)C2=O)CC1.O=C(O)C(=O)O` [Compound 6a, 3-(4-Fluorophenyl)-1-[4-[4-[2-(2-propyloxy)phenyl]-1-piperidinyl]butan-1-yl]-2-imidazolidinone, Oxalate], the IC50 is 0.0079 µM on dopamine D2 receptors and 0.0048 µM on 5-HT1A receptors. Also, the 50% effective dose (ED50) in the data set “Cataleptogenic effect” is over 44 µmol/kg.
`CC(C)Oc1ccccc1C1CCN(CCCCN2CCN(C3CCCCC3)C2=O)CC1.O=C(O)C(=O)O` [Compound 6b, 3-Cyclohexyl-1-[4-[4-[2-(2-propyloxy)phenyl]-1-piperidinyl]butan-1-yl]-2-imidazolidinone, oxalate] displayed a melting point of 138 to 141 °C. Further, the IC50 on dopamine D2 receptors turned out to be 0.0087 µM. Also, in the data set “Cataleptogenic effect”, the ED50 was over 38 µmol/kg. The IC50 at 5-HT1A receptors came to 0.0054 µM.
Consider `CC(C)Oc1ccccc1C1CCN(CCCN2CCN(C3CCCCC3)C2=O)CC1.O=C(O)C(=O)O` [Compound 6c, 3-Cyclohexyl-1-[3-[4-[2-(2-propyloxy)phenyl]-1-piperidinyl]-1-propyl]-2-imidazolidinone, oxalate], for which the melting point lay within 136 to 139 °C. Further, on dopamine D2 receptors, the concentration for half-maximal inhibition (IC50) is 0.11 µM. In addition, the concentration for half-maximal inhibition (IC50) on 5-HT1A receptors stood at 0.035 µM.
Take `CC(C)Oc1ccccc1C1CCN(CCCCN2CCN(C(C)C)C2=O)CC1.O=C(O)C(=O)O` [Compound 6d, 3-(2-Propyl)-1-[4-[4-[2-(2-propyloxy)phenyl]-1-piperidinyl]-1-butyl]-2-imidazolidinone, oxalate]: the melting point is 82 to 84 °C. For the same compound, on dopamine D2 receptors, the 50% inhibitory concentration (IC50) is 0.0077 µM. Besides, the median effective dose (ED50) in “Cataleptogenic effect” was over 41 µmol/kg. At 5-HT1A receptors, this compound showed an IC50 of 0.005 µM.
On to `CC(C)Oc1ccccc1C1CCN(CCCCCCN2CCN(C3CCCCC3)C2=O)CC1.O=C(O)C(=O)O` [Compound 6e, 3-Cyclohexyl-1-[6-[4-[2-(2-propyloxy)phenyl]-1-piperidinyl]-1-hexyl]-2-imidazolidinone, oxalate], for which the melting point is 77 to 79 °C. Also, the IC50 at dopamine D2 receptors was found to be 0.016 µM. In “Cataleptogenic effect”, the median effective dose (ED50) was over 33 µmol/kg. This compound yielded an IC50 on 5-HT1A receptors of 0.02 µM.
Compound `O=C(O)C(=O)O.O=C1N(CCCCN2CCC(c3ccccc3OCC3CC3)CC2)CCN1C1CCCCC1` [Compound 6f, 3-Cyclohexyl-1-[4-[4-[2-(cyclopropylmethoxy)phenyl]-1-piperidinyl]butan-1-yl]-2-imidazolidinone, oxalate] registered a melting point of 186 to 193 °C. Besides, the IC50 at dopamine D2 receptors was determined as 0.037 µM. The compound also came in with a concentration for half-maximal inhibition (IC50) on 5-HT1A receptors of 0.026 µM.
The compound `CC(C)Oc1ccccc1C1CCN(CCCCn2ccn(C3CCCCC3)c2=O)CC1.O=C(O)C(=O)O` [Compound 6h, 3-Cyclohexyl-1-[4-[4-[2-(2-propyloxy)phenyl]-1-piperidinyl]butan-1-yl]-1,3-dihydroimidazol-2-one, oxalate] showed a melting point of 68 to 71 °C. Further, the IC50 on dopamine D2 receptors turned out to be 0.01 µM. For the same compound, the ED50 in the data set “Cataleptogenic effect” was over 38 µmol/kg. Further, the half-inhibitory concentration (IC50) on 5-HT1A receptors is 0.0041 µM.
On to `O=C1N(CCCCN2CCC(c3ccccc3OS(=O)(=O)C(F)(F)F)CC2)CCN1c1ccc(F)cc1` [Compound 7a, 3-(4-Fluorophenyl)-1-[4-[4-[2-(2-trifluoromethylsulfonyloxy)phenyl]-1-piperidinyl]butan-1-yl]-2-imidazolidinone], for which the IC50 at dopamine D2 receptors came to 0.041 µM; at 5-HT1A receptors, 0.037 µM.
In the case of `O=C1N(CCCCN2CCN(c3ccccc3OS(=O)(=O)C(F)(F)F)CC2)CCN1C1CCCCC1` [Compound 7b, 3-Cyclohexyl-1-[4-[4-[2-(2-trifluoromethylsulfonyloxy)phenyl]-1-piperazinyl]butan-1-yl]-2-imidazolidinone, hydrochloride], the figures for the IC50 at dopamine D2 receptors and on 5-HT1A receptors were 0.049 µM and 0.042 µM, respectively. Besides, the ED50 in the data set “Cataleptogenic effect” was over 35 µmol/kg.
Compound `O=C1N(CCCCN2CCN(c3ccccc3OS(=O)(=O)C(F)(F)F)CC2)CCN1c1ccc(F)cc1` [Compound 7c, 3-(4-Fluorophenyl)-1-[4-[4-[2-(2-trifluoromethylsulfonyloxy)phenyl]-1-piperazinyl]butan-1-yl]-2-imidazolidinone] came in with a melting point of 68 to 70 °C. Moreover, on dopamine D2 receptors, the concentration for half-maximal inhibition (IC50) came out at 0.057 µM. The 50% effective dose (ED50) in the data set “Cataleptogenic effect” is over 37 µmol/kg. Moreover, the IC50 at 5-HT1A receptors came out at 0.015 µM.
Consider `CC(C)Oc1ccccc1C1=CCN(CCCCN2CCN(C3CCCCC3)C2=O)CC1.O=C(O)C(=O)O` [Compound 9a, 3-Cyclohexyl-1-[4-[4-[2-(2-propyloxy)phenyl]-1,2,3,6-tetrahydropyridin-1-yl]butan-1-yl]-2-imidazolidinone Oxalate], for which the half-inhibitory concentration (IC50) amounted to 0.0087 µM on dopamine D2 receptors and 0.009 µM at 5-HT1A receptors. In addition, the ED50 in “Cataleptogenic effect” is over 38 µmol/kg.
With `CC(C)Oc1ccccc1C1=CCN(CCCCN2CCN(c3ccc(F)cc3)C2=O)CC1.O=C(O)C(=O)O` [Compound 9b, 3-(4-Fluorophenyl)-1-[4-[4-[2-(2-propyloxy)phenyl]-1,2,3,6-tetrahydropyridin-1-yl]butan-1-yl]-2-imidazolidinone oxalate], the melting point was 150 to 152 °C. For the same compound, the IC50 at dopamine D2 receptors was 0.011 µM. Further, the ED50 in “Cataleptogenic effect” is over 37 µmol/kg. In addition, the half-inhibitory concentration (IC50) on 5-HT1A receptors amounted to 0.0028 µM.
Regarding `CC(C)Oc1ccccc1C1=CCN(CCCCn2ccn(C3CCCCC3)c2=O)CC1` [Compound 9d, 3-Cyclohexyl-1-[4-[4-[2-(2-propyloxy)phenyl]-1,2,3,6-tetrahydropyridin-1-yl]butan-1-yl]-2,3-dihydroimidazol-2-one], the 50% inhibitory concentration (IC50) at dopamine D2 receptors was 0.027 µM; on 5-HT1A receptors, 0.026 µM.
For the compound `O=C(CCCN1CCC(O)(c2ccc(Cl)cc2)CC1)c1ccc(F)cc1` [haloperidol, reference compound], in the data set “Cataleptogenic effect”, the median effective dose (ED50) worked out at 0.36 µmol/kg.

These data come from patent publication US6514993B1, “Serotonin 5-HT1A and dopamin D2 receptor ligands” (H. Lundbeck A/S, priority 1994, dated 2003).
